Read-outs that look alike come from different tables or passages of the source. Where only a bound is given, the exact number is not on record here.

The MBC is the smallest concentration meeting the test's criterion for killing. The term MIC denotes the lowest concentration found to suppress growth.

In data set [1] the test system is C. perfringens reference strains (NCTC 2837, 8235, 8237, 8238, 8239, 8359, 8678, 10578). In kind it is cell-based, Clostridium perfringens. The note with it: for effect on C. perfringens growth in spot assay: 10 μg/ml chloramphenicol, 20 μg/ml spectinomycin, 1 mg/mL lysozyme, 1 mg/mL disodium EDTA; for effect in spot assay: NCTC 8237, FIG. 4, freshly-plated cells and cell lawns.

Data set [2] relates to Clostridium leptum (DSMZ 753). The data set is described as follows: Spot assay of clarified lysates on non-Cp species. Format: cell-based. Also noted: key: The presence of antimicrobial activity is denoted by a ‘+’; the lack of antimicrobial activity is denoted by a ‘−’.
The test system of data set [3] is Clostridium cellobioparum (DSMZ 1351). The data set is described as follows: Spot assay of clarified lysates on non-Cp species. In kind it is cell-based. Also noted: key: The presence of antimicrobial activity is denoted by a ‘+’; the lack of antimicrobial activity is denoted by a ‘−’.
Data set [4] has as its system Clostridium colinum (DSMZ 6011). Description: Spot assay of clarified lysates on non-Cp species. In kind it is cell-based. More on the design: key: The presence of antimicrobial activity is denoted by a ‘+’; the lack of antimicrobial activity is denoted by a ‘−’.
Data set [5] has as its system Bifidobacterium adolescentis (DSMZ 20083). The data set is described as follows: Spot assay of clarified lysates on non-Cp species. In kind it is cell-based. Also noted: key: The presence of antimicrobial activity is denoted by a ‘+’; the lack of antimicrobial activity is denoted by a ‘−’.
The subject of data set [6] is C. perfringens NCTC reference strains and APHA field isolates. In kind it is cell-based, Clostridium perfringens. More on the design: key to bacteriolytic activity, cell lawn: (−) indicates no visible lysis; +/−, +, ++, +++ correspond to increasingly clear lysis halos around the paper disks; +/−, +, ++, +++ correspond to increasingly clear lysis halos around the paper disks; +/−, +, ++, +++ correspond to increasingly clear lysis halos around the paper disks; +/−, +, ++, +++ correspond to increasingly clear lysis halos around the paper disks.

For data set [7], the system named is C. perfringens reference strains (NCTC 2837, 8237, 8238, 8239). In kind it is cell-based, Clostridium perfringens.
The test system of data set [8] is C. perfringens strain Cp6. Format: cell-based, Clostridium perfringens.
The test system of a further data set is C. perfringens Cp6 PGN. In kind it is biochemical, Clostridium perfringens. The note with it: 54D extract, 3× replicates, fresh PGN stock.
Setting [9] is: NCTC 2837, FP (freshly-plated cells).

For “Lysozyme: Chicken hen egg white lysozyme, reference enzybiotic”, in [1], the “effect on C. perfringens growth in spot assay” value (“effect on C. perfringens growth” for short) is reported as “no effect”. In addition, the “antimicrobial activity in spot assay (clearance zone)” value (“antimicrobial activity in spot assay” for short) in [1] (NCTC 2837, CL (cell lawn)) is on record as “−”; in data set [1] (setting [9]), “−”; in data set [1] (NCTC 8235, CL) it was “−”; in data set [1] (NCTC 8235, FP) it was “−”; in data set [1] (NCTC 8237, CL), “−”; in data set [1] (NCTC 8237, FP), “−”. Besides, the “antimicrobial activity in spot assay” value is reported as “−” in [1] (NCTC 8238, CL); “−” in data set [1] (NCTC 8238, FP); “−” in [1] (NCTC 8239, CL); “−” in data set [1] (NCTC 8239, FP); “−” in data set [1] (NCTC 8359, CL); “+” in data set [1] (NCTC 8359, FP). Also, the “antimicrobial activity in spot assay” value was “−” in data set [1] (NCTC 8678, CL); “−” in data set [1] (NCTC 8678, FP); “−” in data set [1] (NCTC 10578, CL); “−” in data set [1] (NCTC 10578, FP); “−” in data set [2]; “−” in data set [3]. The “antimicrobial activity in spot assay” value in [4] is reported as “−”; in data set [5] (DSMZ 20083, CL) it was “−”; in [5] (DSMZ 20083, FP), “−”. Moreover, the “bacteriolytic activity, cell lawn” value was “−” in data set [6] (APHA B00907, 50 μg/ml); “−” in data set [6] (APHA B00917, 50 μg/ml); “−” in [6] (APHA B00954, 50 μg/ml); “−” in data set [6] (APHA B00964, 50 μg/ml); “−” in data set [6] (APHA B00976, 50 μg/ml); “−” in [6] (APHA G00033, 50 μg/ml). For the same molecule, the “bacteriolytic activity, cell lawn” value was “−” in data set [6] (APHA W100102, 50 μg/ml); “−” in data set [6] (NCTC 2837, 50 μg/ml); “−” in data set [6] (NCTC 8237, 50 μg/ml); “−” in data set [6] (NCTC 8238, 50 μg/ml); “−” in data set [6] (NCTC 8239, 50 μg/ml). Besides, the “growth inhibition, freshly plated cells” value in data set [6] (APHA B00907, 50 μg/ml) is “−”; in data set [6] (APHA B00917, 50 μg/ml) it was “−”; in data set [6] (APHA B00954, 50 μg/ml), “−”; in data set [6] (APHA B00964, 50 μg/ml), “−”; in data set [6] (APHA B00976, 50 μg/ml), “−”; in [6] (APHA G00033, 50 μg/ml), “−”. In addition, the “growth inhibition, freshly plated cells” value in data set [6] (APHA W100102, 50 μg/ml) is recorded as “−”; in data set [6] (NCTC 2837, 50 μg/ml) it was “−”; in [6] (NCTC 8237, 50 μg/ml), “−”; in data set [6] (NCTC 8238, 50 μg/ml), “−”; in data set [6] (NCTC 8239, 50 μg/ml), “−”. The “bacteriolytic activity in turbidity reduction assay” value in data set [7] is “minimal bacteriolytic activities”. The minimal bactericidal concentration (MBC) in [8] (Cp6, molar basis) was more than 174 µM; in data set [8] (Cp6, ~2.1E4 cells/mL), more than 2500 µg/mL. Further, the MIC was more than 174 µM in [8] (Cp6, molar basis) and more than 2500 µg/mL in [8] (Cp6, ~2.1E4 cells/mL, overnight at 41° C.). Further, the “lysozyme loading not able to inhibit overnight growth” value in data set [8] (Cp6, ~2.1E4 cells/mL) is reported as more than 2.5 mg/mL.

Take `NC[C@H]1O[C@H](O[C@H]2[C@H](O)[C@@H](O[C@H]3O[C@H](CO)[C@@H](O)[C@H](N)[C@H]3O)[C@H](N)C[C@@H]2N)[C@H](O)[C@@H](O)[C@@H]1O` [kanamycin]: in data set [1], the “effect in spot assay” value is on record as “no effect”.

In the case of `O=C([O-])CN(CCN(CC(=O)[O-])CC(=O)O)CC(=O)O.[Na+].[Na+]` [disodium EDTA], the “effect on C. perfringens growth” value in data set [1] is listed as “no effect”. For the same molecule, the “effect on freshly-plated cells in spot assay” value in data set [1] (10 mM EDTA, screening set 2) was “inhibitory effect”.

For the molecule `O=C(N[C@H](CO)[C@H](O)c1ccc([N+](=O)[O-])cc1)C(Cl)Cl` [Chloramphenicol], in [1], the “effect on C. perfringens growth” value is recorded as “no effect” and the “effect in spot assay” value is “no effect”.

Turning to `CN[C@@H]1[C@H](O)[C@H](NC)[C@H]2O[C@@]3(O)C(=O)C[C@@H](C)O[C@H]3O[C@@H]2[C@H]1O` [spectinomycin], in data set [1], the “effect on C. perfringens growth” value was “no effect” and the “effect in spot assay” value was “no effect”.

In the case of `CC1(C)S[C@@H]2[C@H](NC(=O)[C@H](N)c3ccccc3)C(=O)N2[C@H]1C(=O)O` [Ampicillin], the “antimicrobial activity in spot assay” value is listed as “−” in data set [1] (NCTC 2837, CL (cell lawn)); “+” in data set [1] (setting [9]); “−” in data set [1] (NCTC 8235, CL); “+” in data set [1] (NCTC 8235, FP); “−” in data set [1] (NCTC 8237, CL); “+” in data set [1] (NCTC 8237, FP). In addition, the “antimicrobial activity in spot assay” value in [1] (NCTC 8238, CL) is “−”; in data set [1] (NCTC 8238, FP), “+”; in [1] (NCTC 8239, CL), “−”; in data set [1] (NCTC 8239, FP), “+”; in data set [1] (NCTC 8359, CL) it was “−”; in data set [1] (NCTC 8359, FP) it was “+”. The “antimicrobial activity in spot assay” value in data set [1] (NCTC 8678, CL) is listed as “−”; in [1] (NCTC 8678, FP) it was “+”; in data set [1] (NCTC 10578, CL), “−”; in data set [1] (NCTC 10578, FP), “+”; in [2] (DSMZ 753, CL) it was “−”; in [3] (DSMZ 1351, CL), “−”. Further, the “antimicrobial activity in spot assay” value in data set [3] (DSMZ 1351, FP) was “+”; in data set [4] (DSMZ 6011, CL), “−”; in [4] (DSMZ 6011, FP) it was “−”; in [5] (DSMZ 20083, CL), “−”; in data set [5] (DSMZ 20083, FP), “+”.

B1: AMI3CPF4969: endolysin sequence, SEQ ID NO: 11 (protein)
chain: QSRSDSNFKGIDISNWQKGINLNQLKERGYDVCYIKITEGKGYVDPCFEENYNKAIAAGMKVGVYHYWRGTSSAIEQANNIVRTLGNKHIDCKIAIDVEQTDGLSYGELNNSVLQLAEELERLIGAEVCIYCNTNYARNVLDSRLGKYSLWVAHYGVNKPGDNPIWDKWAGFQYSENGTSNVNGSLDLDEFTEEIFINKESSKVTENKLFSTNARALVALDPRDNPSDNYNDLGEIYEGERIQVLAEVCDKEDYLPVKYWKDSEGRESGKVWIRSKQDYMMIDTYHRVFNVITQLDARYEPSSDSATMGYVKNGERLYVHRTEGNYSLCTYFAGNGYKTAWFTAKYLER
modifications: AMI3CPF4969
Take B1: the “fold enhancement of PGN degradation activity in 54D algal extract vs PBS, pH 7.0” value in the data set with C. perfringens Cp6 PGN is not above 44 fold.

Values taken from US20220290114A1 (priority 2019, published 2022).
